One assay has as its system skin sympathetic nerve. Briefly: Psoriasis model with skin sympathetic nerve ablation (intradermal 6-OHDA before IMQ). The assay is classed as in vivo, mice. Conditions: intradermal injection before IMQ treatment. As to the method:
In the embodiment of the disclosure, the sympathectomy of local skin is as follows. […] of 6-hydroxydopamine (6-OHDA) are dissolved into 100 microliters (μL) of 0.1% ascorbic acid solution (diluted with 0.9% sterile sodium chloride) to prepare a fresh sympathetic nerve ablation solution. Wild-type mice aged 7-8 weeks are selected to shave their back hair, and the exposed skin area is 2 centimeters (cm)×2 cm. Then, the mice are intradermally injected with 100 μL fresh sympathetic nerve ablation solution, controls are injected with an injecting control agent (100 μL of 0.1% ascorbic acid solution).

For assay [1], the system named is catecholaminergic neurons. To be noted: intraperitoneal injection; cited from earlier work.
The test system of assay [2] is IMQ-induced mice. Briefly: IMQ-induced psoriasis mouse model smeared with β1-AR antagonist/agonist. The assay is classed as in vivo. As to the method:
In the embodiment of the disclosure, the construction of psoriasis mouse model smeared with β1-AR antagonist/agonist is as follows. 5 μL of β1-AR antagonist/agonist storage solution (40 mg/mL, DMSO solvent) is taken and dissolved in 95 μL of 20% sulfobutylether-beta-cyclodextrin derivative (SBE-β-CD) solution (diluted with sterile sodium chloride) to prepare 2 mg/mL antagonist/agonist diluent. Wild-type mice aged 7-8 weeks are selected to shave their back hair, and the exposed skin area is 2 cm×2 cm. The mice are applied with 100 μL of the antagonist/agonist diluent, and controls are smeared with a smearing control agent (i.e., 5 μL DMSO+95 μL 20% SBE-β-CD solution).

A further assay concerns primary γδT cells. Briefly: IL17A/F transcription in primary γδT cells stimulated by IL-23 and ACE/DOB. The assay is classed as cell-based, mice. To be noted: primary γδT cells activated by IL-23; DOB at high concentration. From the text:
(§1) In the embodiment of the disclosure, in order to study how to ADRB1 regulates the inflammatory response of γδT cells, high-purity primary γδT cells are isolated from the spleen of mice by magnetic bead sorting kit, and stimulated with ADRB1 agonist and antagonist respectively.

A further assay concerns NF-κB (P65). In words: Activation of NF-κB, AKT, p38, ERK in IL-23-activated primary γδT cells. The assay is classed as cell-based, mice.
Source text: as §1

The subject of the next assay is NF-κB. Briefly: NF-κB phosphorylation in skin of IMQ-induced psoriatic mice. The assay is classed as in vivo.
Assay [3] deals with γδT-cell deficient mice (Tcrd−/−). Briefly: DOB applied to skin of γδT-cell deficient mice (Tcrd−/−). The format is in vivo. From the text: Combined with the previous results, it is verified that NE in skin is mainly derived from skin sympathetic nerve and mediates the release IL-17 from γδT cells rather than αβT cells through NE-ADRB1 signaling pathway.
Assay [4] is described as follows: Neurotransmitter content (ELISA) and TH phosphorylation (western blot) in IMQ-treated mice. The format is in vivo. (In general: In an ELISA, binding on a coated surface is turned into a signal by an enzyme label.)
The subject of another assay is β1-AR. In words: Proportion of β1-AR+ T cells in skin of IMQ-treated mice (immunofluorescence and flow cytometry). The assay is classed as in vivo. From the text:
In the embodiment of the disclosure, immunofluorescence and flow cytometry are used to detect β1-AR is mainly expressed in IL-17A-producing γδT cells (also referred to as γδT-17 cells), as shown in FIG. 14.

The test system of assay [5] is IMQ-induced mice. Briefly: Psoriasis model with subcutaneous norepinephrine (NE) injection. The assay is classed as in vivo. To be noted: subcutaneous injection while IMQ is smeared. As to the method:
In the embodiment of the disclosure, the construction of psoriasis model injected with norepinephrine (NE) is as follows. 6 μL of norepinephrine storage solution (10 millimoles per liter, abbreviated mM) is dissolved into 100 μL of 1 xphosphate-buffered saline (also referred to as 1×PBS, specifically prepared by a commonly used 1× phosphate buffered saline recipe), and […] NE diluent is prepared. Wild-type mice aged 7-8 weeks are selected to shave their back hair, and the exposed skin area is 2 cm×2 cm. Then, the mice are subcutaneously injected with 100 μL NE diluent, and controls are injected with an injecting control agent (6 μL dimethyl sulfoxide, abbreviated DMSO+100 μL PBS).

The next assay has as its system Dendritic cells (DCs). To be noted: cited from earlier work; for IL-17A induced by stimulated DCs / production of IFN-γ by CD4 cells: DCs in mice stimulated.
Where [6] appears, read: psoriatic mice treated with IMQ vs control mice treated with VAS.

We go through six compounds from US20240100000A1, “APPLICATION OF ADRB1 ACTIVE INHIBITOR IN PREPARING PREPARATION OR AS PREPARATION FOR TREATING PSORIASIS” (priority 2022, published 2024).

Counter-ions that a name gives are not always drawn.

For the compound `NCCc1cc(O)c(O)cc1O` [6-OHDA, 6-hydroxydopamine], in the assay on skin sympathetic nerve, the “IL-17A+γδT cells in sympathetic denervated skin” value was “decreased” and the “NE in sympathetic denervated skin” value is on record as “decrease”. For the same compound, the “psoriasis-like phenotype of mice induced by IMQ” value with skin sympathetic nerve (removal of skin sympathetic nerve) was “reduces”. Moreover, in assay [1], the “IMQ induced ear swelling” value was “reduce” and the “production of IL-17” value is “does not affect”.
In the case of `CCCC(=O)Nc1ccc(OCC(O)CNC(C)C)c(C(C)=O)c1` (stereo not drawn) [ACE, acebutolol hydrochloride], the “proportion of γδT-17 cells in the skin” value in the assay with IMQ-induced mice [2] (IMQ-induced mice smeared with drug) is recorded as “reduced”. Also, in the assay with primary γδT cells, the “transcription of IL17A” value is “decreases” and the “transcription of IL17F” value is listed as “decreases”. In the assay on NF-κB (P65), the “NF-κB (P65) phosphorylation” value was “inhibits”; the “activation of P38, ERK, JNK and AKT” value is recorded as “do not affect”. In addition, the “activation of NF-κB (phosphorylation) in the skin” value with NF-κB is listed as “inhibition”.
Turning to `CC(CCc1ccc(O)cc1)NCCc1ccc(O)c(O)c1` (stereo not drawn) [DOB, dobutamine hydrochloride], the “IL-17A production of γδT cells in the skin” value with IMQ-induced mice [2] (IMQ-induced mice) is on record as “promotes”. Also, in the assay with IMQ-induced mice [2] (IMQ-induced mice smeared with drug, compared with the control group), the “back skin thickness, erythema, and scaling” value was “increased”. The psoriasis-like phenotype entry in the assay on IMQ-induced mice [2] (IMQ-induced mice, smeared on back skin, 100 μL of 2 mg/mL diluent, 4 consecutive days, compared with the control group) is listed as “aggravated”. Also, the “IL-17 producing capacity αβT cells” value in assay [3] is given as “no effect”. Also, the “promoting effects on the psoriasis-like phenotype and inflammatory infiltration” value in [3] (lack of γδT cells) was “offset”. In addition, in the assay with primary γδT cells, the “transcription of IL17A” value is on record as “increase” and the “transcription of IL17F” value is on record as “increase”. Moreover, in the assay with NF-κB (P65), the “NF-κB (P65) phosphorylation” value is “significantly increases”; the “activation of P38, ERK, JNK and AKT” value was “do not affect”. For the same compound, in the assay with NF-κB, the “activation of NF-κB (phosphorylation) in the skin” value is on record as “enhances”.
For the compound `CC(C)Cn1cnc2c(N)nc3ccccc3c21` [IMQ, imiquimod], in assay [4] (setting [6]), the “NE content in both skin and serum” value is on record as “higher”; the “dopamine in skin and serum” value is “no difference”. In [4] (western blot), the “TH phosphorylation in mouse skin” value is listed as “significant up-regulation”. The “proportion of β1-AR+ cells in γδT cells in the skin” value in the assay with β1-AR (IMQ-treated vs VAS treated mice) was “significantly higher”. In addition, in the assay on β1-AR (VAS-treated vs IMQ-treated mice), the “proportion of β1-AR+ cells in αβT cells in the skin” value is given as “no significant difference”.
In the case of `NC[C@H](O)c1ccc(O)c(O)c1` [NE, norepinephrine], the “proportion of IL-17A+γδT cells in the skin of mice” value in the assay with IMQ-induced mice [5] is given as “increases”. The “psoriasis-like phenotype of mice induced by IMQ” value in the assay with IMQ-induced mice [5] (4 days) is “exacerbates”. Also, in the assay with Dendritic cells (DCs), the “IL-17A induced by stimulated DCs” value was “induce” and the “production of IFN-γ by CD4 cells” value is given as “reducing”.
In the case of `CC(C)(C)NCC(O)c1ccc(O)c(CO)c1` (stereo not drawn) [salbutamol], the “IL-23 production by DCs” value in the assay on Dendritic cells (DCs) (DCs from treated mice) is “more”. In addition, in the assay on Dendritic cells (DCs), the “IL-17A induced by stimulated DCs” value is reported as “induce” and the “production of IFN-γ by CD4 cells” value is given as “reducing”.
